Literature values, collected in PubChem BioAssay AID1259409 (Chemical Carcinogenesis Research Information System (CCRIS), 2018).

System: rodent chemically induced tumor inhibition, incidence and multiplicity
Assay: CCRIS tumor inhibitor studies
Details: Route [Inhibitor]: ORAL

Q: For `Cc1c(C)c2c(c(C)c1O)CC[C@@](C)(CCC[C@H](C)CCC[C@H](C)CCCC(C)C)O2`, which “tumour outcome (control, treated, inhibition, significance)” value (Carcinogen: 1,2-DIMETHYLHYDRAZINE, 540-73-8, Dose [Inhibitor]: 600 MG/KG OF DIET DAILY STARTING AT AGE 10 WK AND CONTINUING FOR DURATION OF STUDY (STUDY DURATION: 28 WK), Species: MOUSE, Strain/Sex: LACA/MALE, Target Tissue: Type of Lesion: COLON: ADENOMA, CARCINOMA, Dose [Carcinogen]: 10 MG/KG BW 1/WK FOR 28 WK, Promoter: NONE USED) is on record?
A: 34/42 (81%), 31/51 (61%), 25%, p<0.25

Q: And the “tumour outcome (control, treated, inhibition, significance)” value (Carcinogen: 2-AMINO-1-METHYL-6-PHENYL-1H-IMIDAZO[4,5-B]PYRID INE, 105650-23-5, Dose [Inhibitor]: 0, 1% IN THE DIET FOR 52 WK (STUDY DURATION: 52 WK), Species: RAT, Strain/Sex: F344/FEMALE, Target Tissue: Type of Lesion: MAMMARY GLAND: ADENOCARCINOMA FIBROADENOMA, Dose [Carcinogen]: 0.02% IN THE DIET FOR 52 WK, Promoter: NONE USED)?
A: 2/20 (10%), 1/20 (5%), 50%, not significant

Q: What about the “tumour outcome (control, treated, inhibition, significance)” value (Carcinogen: 2-AMINO-1-METHYL-6-PHENYL-1H-IMIDAZO[4,5-B]PYRID INE, 105650-23-5, Dose [Inhibitor]: 0, 1% IN THE DIET FOR 52 WK (STUDY DURATION: 52 WK), Species: RAT, Strain/Sex: F344/FEMALE, Target Tissue: Type of Lesion: MAMMARY GLAND: ADENOCARCINOMA, Dose [Carcinogen]: 0.02% IN THE DIET FOR 52 WK, Promoter: NONE USED) of the same compound?
A: 8/20 (40%), 4/20 (20%), 50%, not significant

Q: What about the “tumour outcome (control, treated, inhibition, significance)” value (Carcinogen: 2-AMINO-1-METHYL-6-PHENYLIMIDAZO[4,5-B]PYRIDINE [105650-23-5], Dose [Inhibitor]: 0.5% IN DIET FOR 54 WK (STUDY DURATION: 54 WK), Species: RAT, Strain/Sex: F344/DUCRJ/FEMALE, Target Tissue: Type of Lesion: COLON: ADENOMA OR ADENOCARCINOMA, Dose [Carcinogen]: 0.02% IN DIET FOR 54 WK (STUDY DURATION: 54 WK), Promoter: NONE) of the same compound?
A: 3/20 (15%), 1/20 (5%), 67%, not significant

Q: What about the “tumour outcome (control, treated, inhibition, significance)” value (Carcinogen: 2-AMINO-1-METHYL-6-PHENYLIMIDAZO[4,5-B]PYRIDINE [105650-23-5], Dose [Inhibitor]: 0.5% IN DIET FOR 54 WK (STUDY DURATION: 54 WK), Species: RAT, Strain/Sex: F344/DUCRJ/FEMALE, Target Tissue: Type of Lesion: MAMMARY GLAND: ADENOMA OR ADENOCARCINOMA, Dose [Carcinogen]: 0.02% IN DIET FOR 54 WK (STUDY DURATION: 54 WK), Promoter: NONE) of the same compound?
A: 8/20 (40%), 4/20 (20%), 50%, not significant

Q: What about the “tumour outcome (control, treated, inhibition, significance)” value (Carcinogen: 3,2'-DIMETHYL-4-AMINOBIPHENYL, 13394-86-0, Dose [Inhibitor]: 0, 1% IN BASAL DIET BEGINNING POST CARCINOGEN TREATMENT AND CONTINUING FOR 40 WK (STUDY DURATION: 60 WK), Species: RAT, Strain/Sex: F344/MALE, Target Tissue: Type of Lesion: LARGE INTESTINE: ADENOMA AND ADENOCARCINOMA, Dose [Carcinogen]: 50 MG/KG 1/2 WK FOR 20 WK TO RATS MAINTAINED ON ETHINYL ESTRADIOL CONTAINING DIET (0.75 PPM) FOR 1 WK CYCLED WITH ETHINY, Promoter: ETHINYL ESTRADIOL, 57-63-6) of the same compound?
A: 3/10 (30%), 4/12 (33%), -10%, not significant

Q: What about the “tumour outcome (control, treated, inhibition, significance)” value (Carcinogen: 3,2'-DIMETHYL-4-AMINOBIPHENYL, 13394-86-0, Dose [Inhibitor]: 0, 1% IN BASAL DIET BEGINNING POST CARCINOGEN TREATMENT AND CONTINUING FOR 40 WK (STUDY DURATION: 60 WK), Species: RAT, Strain/Sex: F344/MALE, Target Tissue: Type of Lesion: PREPUTIAL GLAND: ADENOMA AND CARCINOMA, Dose [Carcinogen]: 50 MG/KG 1/2 WK FOR 20 WK TO RATS MAINTAINED ON ETHINYL ESTRADIOL CONTAINING DIET (0.75 PPM) FOR 1 WK CYCLED WITH ETHINY, Promoter: ETHINYL ESTRADIOL, 57-63-6) of the same compound?
A: 5/10 (50%), 6/12 (50%), 0%, not significant

Q: What about the “tumour outcome (control, treated, inhibition, significance)” value (Carcinogen: 3,2'-DIMETHYL-4-AMINOBIPHENYL, 13394-86-0, Dose [Inhibitor]: 0, 1% IN BASAL DIET BEGINNING POST CARCINOGEN TREATMENT AND CONTINUING FOR 40 WK (STUDY DURATION: 60 WK), Species: RAT, Strain/Sex: F344/MALE, Target Tissue: Type of Lesion: SMALL INTESTINE: ADENOMA AND ADENOCARCINOMA, Dose [Carcinogen]: 50 MG/KG 1/2 WK FOR 20 WK TO RATS MAINTAINED ON ETHINYL ESTRADIOL CONTAINING DIET (0.75 PPM) FOR 1 WK CYCLED WITH ETHINY, Promoter: ETHINYL ESTRADIOL, 57-63-6) of the same compound?
A: 2/10 (20%), 1/12 (8%), 60%, not significant

Q: What about the “tumour outcome (control, treated, inhibition, significance)” value (Carcinogen: 3,2'-DIMETHYL-4-AMINOBIPHENYL, 13394-86-0, Dose [Inhibitor]: 0, 1% IN BASAL DIET BEGINNING POST CARCINOGEN TREATMENT AND CONTINUING FOR 40 WK (STUDY DURATION: 60 WK), Species: RAT, Strain/Sex: F344/MALE, Target Tissue: Type of Lesion: SUBCUTIS: TUMOR, Dose [Carcinogen]: 50 MG/KG 1/2 WK FOR 20 WK TO RATS MAINTAINED ON ETHINYL ESTRADIOL CONTAINING DIET (0.75 PPM) FOR 1 WK CYCLED WITH ETHINY, Promoter: ETHINYL ESTRADIOL, 57-63-6) of the same compound?
A: 1/10 (10%), 0/12 (0%), 100%, not significant

Q: What about the “tumour outcome (control, treated, inhibition, significance)” value (Carcinogen: 3,2'-DIMETHYL-4-AMINOBIPHENYL, 13394-86-0, Dose [Inhibitor]: 0, 1% IN BASAL DIET BEGINNING POST CARCINOGEN TREATMENT AND CONTINUING FOR 40 WK (STUDY DURATION: 60 WK), Species: RAT, Strain/Sex: F344/MALE, Target Tissue: Type of Lesion: ZYMBAL GLAND: ADENOMA AND CARCINOMA, Dose [Carcinogen]: 50 MG/KG 1/2 WK FOR 20 WK TO RATS MAINTAINED ON ETHINYL ESTRADIOL CONTAINING DIET (0.75 PPM) FOR 1 WK CYCLED WITH ETHINY, Promoter: ETHINYL ESTRADIOL, 57-63-6) of the same compound?
A: 2/10 (20%), 1/12 (8%), 60%, not significant
